Values quoted from earlier work as cited in US20090298802A1, “Pharmaceutical Compositions” (priority 2005, published 2009).

Tests used:
patients with COPD = details: 516 patients with COPD, after 26 weeks of dosing, versus placebo recipients
guinea-pig model of COPD = details: COPD induced by cigarette smoke exposure

| Structure (SMILES) | tolerability profile (patients with COPD) | neutrophilia (guinea-pig model of COPD) | specific airway resistance (guinea-pig model of COPD) |
| --- | --- | --- | --- |
| O=C(Nc1c(Cl)cncc1Cl)c1ccc(OC(F)F)c(OCC2CC2)c1 [Roflumilast] | equivalent to that seen in placebo recipients | – | – |
| CCOc1ccc(-c2nc(-c3cccc(C(=O)O)n3)cs2)cc1OCC [Tetomilast] | – | improvements | improvements |
